{"source": "patent US20220386602A1", "about": "“METHODS OF USING A COMPOSITION COMPRISING AN ANIONIC PESTICIDE AND A BUFFER” (BASF CORPORATION, priority 2019, published 2022)", "test_system": "dicamba sensitive soybean plants", "details": "dicamba 2240 g ae/ha, AMS 917 g/ha and K2CO3 buffer 4000 g/ha where named, 0.25% v/v non-ionic surfactant (Preference), 8 glass petri plates", "source_text": "The method of a bioassay humidome study utilizes a treated substrate (e.g. glass, soil, potting mix or plants) placed in a plastic tray covered with a clear plastic humidome (overall size 25 cm wide×50 cm long×20 cm tall; source: Hummert) along with 2 dicamba sensitive soybean plants (1-2 true leaves). Individual humidomes representing different study treatments and replicates are placed in a greenhouse environment (with a typical diurnal temperature range of 25 to 40 C and 75 to 98 % RH).\nAfter 18 to 24 hours, the sensitive soybean plants are removed from the humidomes and placed on a greenhouse bench for observation and visual response or injury assessment over a 2-3 weeks period. The level of injury to soybean plants is an indirect measurement of amount of dicamba exposure from treated substrate.", "note": "Read-outs that look alike come from different tables or passages of the source.", "data": [{"smiles": "CNC.COc1c(Cl)ccc(Cl)c1C(=O)O", "note": "[Dicamba-DMA, dicamba dimethylamine]", "values": [{"measurement": "% bioassay soybean response", "value": 45, "unit": "%"}]}, {"smiles": "CN(CCCN)CCCN.COc1c(Cl)ccc(Cl)c1C(=O)O", "note": "[Dicamba-BAPMA, dicamba N,N-bis(3-aminopropyl)methylamine salt]", "values": [{"measurement": "% bioassay soybean response", "value": 9, "unit": "%"}, {"measurement": "% bioassay soybean response", "setting": "listed as dicamba-BAPMA", "value": "lower soybean response than dicamba-DGA or dicamba-DMA"}]}]}
